Results reported in paper PMC11555231 (Nature Communications, 2024).
Bridge positions count the residues as written; N and C are the ends. Square brackets hold non-standard residues; d marks the D form. Peptide text beside a SMILES is read from it.

Key:
Bio-hPADI4 wt = molecular target: T1, Bio-hPADI4 wt (Homo sapiens, UniProt Q9UM07); assay: Surface plasmon resonance (SPR), single cycle kinetics, peptide binding to immobilised PADI4
T1 construct: PADI4 (residues 1–663); Avi-Tag (biotinylated by BirA); made in house; host or cells: E. coli BL21-DE3 co-expressing BirA
T1 sequence (Q9UM07 whole entry, the tested form may be a part): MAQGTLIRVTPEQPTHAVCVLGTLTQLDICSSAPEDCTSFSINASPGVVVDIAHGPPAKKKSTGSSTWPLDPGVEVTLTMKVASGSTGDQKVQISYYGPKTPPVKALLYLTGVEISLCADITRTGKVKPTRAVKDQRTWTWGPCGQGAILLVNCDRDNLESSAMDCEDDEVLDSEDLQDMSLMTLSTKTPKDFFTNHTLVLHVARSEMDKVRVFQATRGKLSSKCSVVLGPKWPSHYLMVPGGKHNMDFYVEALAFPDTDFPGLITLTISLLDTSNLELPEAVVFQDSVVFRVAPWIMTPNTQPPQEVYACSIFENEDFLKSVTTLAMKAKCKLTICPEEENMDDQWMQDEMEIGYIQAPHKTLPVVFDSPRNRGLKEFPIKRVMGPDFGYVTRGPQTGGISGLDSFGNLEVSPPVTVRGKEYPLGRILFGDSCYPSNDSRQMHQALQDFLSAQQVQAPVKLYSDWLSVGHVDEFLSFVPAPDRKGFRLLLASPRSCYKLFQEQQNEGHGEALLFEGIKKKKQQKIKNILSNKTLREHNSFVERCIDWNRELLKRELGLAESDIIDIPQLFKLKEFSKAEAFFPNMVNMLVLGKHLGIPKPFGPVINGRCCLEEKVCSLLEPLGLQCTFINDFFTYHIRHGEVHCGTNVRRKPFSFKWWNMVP
Procedure: Single cycle kinetics analysis by SPR was carried out using a Biacore T200 or S200 and a Biotin CAPture kit, series S (Cytiva). […] 50 mM HEPES (pH 7.5), 150 mM NaCl, 2 mM DTT, 0.05 % Tween-20, 0.1% DMSO and variable CaCl2 (as specified) was used as the running buffer and experiments performed at 25 °C.
Samples were run with 120 s contact time, and variable dissociation time (often 360 s). Data were analysed using the Biacore T200 analysis software; data was fitted to a 1:1 binding model accounting for baseline drift where necessary. Data are presented as the average ± standard deviation of at least two independent replicates.

HaLo-GFP-mito HeLa cells = assay: Chloroalkane penetration assay (CAPA); type: in vitro ADME; settings: CAPA, chloroalkane-tagged peptide, 4 h in Opti-MEM, 37 °C, chase HaLo-Tag TMR ligand 5 µM 15 min, flow cytometry; mean ± SEM of three independent experiments
Procedure: Following the addition of chloroacetyl-NHS to the N-terminal amino group, Cys(mmt) was selectively deprotected using 1% TFA, 5% triisopropylsilane in DCM (30 min, RT). Peptides were then cyclised on resin using 2% diisopropylethylamine in DMF overnight. Following cyclisation, Lys(ivDde) was deprotected using 2% hydrazine in DMF. The resin was then washed (3 x DCM, 3 x DMF) before on-resin coupling of chloroalkane carboxylic acid was performed on the lysine side chain using Hexafluorophosphate Azabenzotriazole Tetramethyl Uronium / diisopropylethylamine in DMF for 2 h. Global deprotection and purification were then carried out as described above. Chloroalkane carboxylate was synthesised as previously described.
CAPA assays were performed following the protocol published in ref. [51]. In brief, 40,000 HaLo- GFP-mito HeLa cells were seeded in a 96-well plate. Twenty-four hours later, cells were treated with different concentrations of chloroalkane-tagged peptides (100 µM to 200 nM for PADI4_3 and PADI4_3i and 50 µM to 100 nM for PADI4_11 and PADI4_11i) for 4 h in Opti-MEM. Media containing peptides was then removed, and cells were incubated with Opti-MEM (Gibco) for 15 min. After that time, the wash was removed, and cells were chased with HaLo-Tag TMR ligand (5 µM, Promega) in Opti-MEM for 15 min. The ligand was then removed, and cells were incubated with Opti-MEM for 30 min. Cells were then trypsinised, resuspended in phosphate-buffered saline (PBS) with 0.5% FBS and analysed using a benchtop flow cytometer (MACSQuant® VYB Flow cytometer Milteny Biotec). For each well, 10000 GFP positive single cells were analysed (gating workflow shown in Supplementary Fig. 18), and TMR mean fluorescence was normalised against a positive control (cells treated with HaLo-Tag TMR ligand but no peptide) and a negative control (non-treated cells). Analysis was performed using FlowJo (LCC) software and Prism GraphPad (Dotmatics). Data were presented as the average ± standard error of three independent replicates.

hPADI4-stable mES cells = assay: High content microscopy of citrullinated histone H3 (H3Cit) in hPADI4-stable mES cells; type: cell-based, mouse; settings: mean H3Cit intensity, KSR/2i 3 h, range of peptide concentrations
Procedure: HaLo-GFP-mito HeLa cells were grown in DMEM (Gibco) supplemented with 10% foetal bovine serum (FBS), penicillin/streptomycin (100 µg/ml) and puromycin (1 µg/ml) at 37 °C, 5% CO2. HaLo-GFP-mito HeLa cell line[82] was profiled by short tandem repeat analysis (STR) and tested negative for mycoplasma by the Cell Services Technology Platform at the Francis Crick Institute. E14 –mouse embryonic stem cells (Cambridge Stem Cell Institute, UK) were cultured in plates coated with 1% gelatine in GMEM supplemented with 10% foetal calf serum (FCS) batch-tested for ES cell culture (Gibco), 0.1 mM non-essential amino acids, 2 mM L-glutamine, 1 mM sodium pyruvate, 0.1 mM β-mercaptoethanol and 50 ng/mL leukaemia inhibitory factor (LIF) (ESGRO, Millipore). For PADI4 activation, cells were cultured in GMEM containing 10% knockout serum replacement (KSR, Life Technologies), 1% FCS batch-tested for ES cell culture (Gibco), 0.1 mM non-essential amino acids, L-glutamine, 1 mM sodium pyruvate, 0.1 mM β-mercaptoethanol, 50 ng/mL LIF (ESGRO, Millipore), 1 μM PD0325901 (AxonMedChem) and 3 μM CHIR99021 (AxonMedChem). For the generation of E14 mES stably expressing human PADI4 (hPADI4-stable), human PADI4 cDNA was inserted into ES E14 cells using the piggyBac transposon system. The Gateway system was used to clone human PADI4 into the piggyBac vector using primers PADI4_AttB1_F and PADI4_AttB2_R (Table S4). pPB-CAG-CTRL (empty vector) or pPB-CAG-hPADI4 vectors […] were transfected with the piggyBac transposase (pPBase) expression vector, pCAGPBase […], by lipofection according to the manufacturer’s instructions (Lipofectamine 2000, Invitrogen). E14 cells constitutively expressing the hygromycin resistance gene and human PADI4 were selected and expanded in media containing […] hygromycin.
E14 cells were seeded onto 96-well PerkinElmer cell carrier ultra plates (Phenoplates) coated with 0.1% gelatine, at 25,000 cells per well and grown overnight at 37 °C, 5% CO2. Outer wells were excluded but medium was added to minimise any edge effects. […]

binding to PADI4 (in words) (Bio-hPADI4 wt): did not bind | CP50 (HaLo-GFP-mito HeLa cells): 2.0 ± 0.8 µM
Compound: N=C(N)NCCC[C@@H]1NC(=O)[C@H](CC(=O)O)NC(=O)[C@@H](Cc2ccc(O)cc2)NC(=O)CSC[C@@H](C(=O)NCC(N)=O)NC(=O)[C@H](Cc2ccc(O)cc2)NC(=O)[C@H](CCCCN)NC(=O)[C@@H]2CCCN2C(=O)[C@H](Cc2c[nH]cn2)NC(=O)[C@H](CCCNC(=N)N)NC(=O)[C@H](Cc2ccc(O)cc2)NC(=O)[C@H](Cc2c[nH]cn2)NC(=O)[C@H](Cc2c[nH]cn2)NC1=O [PADI4_3i] ({CH2CO}-[dY]DRHHYRHPKYCG-NH2; thioether N-12)
inhibition of intracellular PADI4 (in words) (hPADI4-stable mES cells): no inhibition
